Tested on: Alternaria solani
Assay: Tomato Early Blight (ALTESO) fungicidal activity
Type: in vivo
Details: 24 h, 1DP (1 Day Protectant), read-out: ALTESO Disease Control
Method: Technical grades of materials were dissolved in acetone, which were then mixed with nine volumes of H2O containing 110 ppm Triton X-100. The fungicide solutions were applied onto wheat seedlings using an automated booth sprayer to run-off. All sprayed plants were allowed to air dry prior to further handling. All fungicides were evaluated using the aforementioned method for their activity vs. all target diseases, unless stated otherwise. Wheat leaf blotch and brown rust activity were also evaluated using track spray applications, in which case the fungicides were formulated as EC formulations, containing 0.1% Trycol 5941 in the spray solutions. Wheat plants (variety Yuma) were grown from seed in a greenhouse in 50% mineral soil/50% soil-less Metro mix until the first leaf was fully emerged, with 7-10 seedlings per pot. These plants were inoculated with an aqueous spore suspension of Zymoseptoria tritici either prior to or after fungicide treatments. After inoculation the plants were kept in 100% relative humidity (one day in a dark dew chamber followed by two to three days in a lighted dew chamber at 20° C.) to permit spores to germinate and infect the leaf. The plants were then transferred to a greenhouse set at 20° C. for disease to develop. When disease symptoms were fully expressed on the 1st leaves of untreated plants, infection levels were assessed on a scale of 0 to 100 percent disease severity. Percent disease control was calculated using the ratio of disease severity on treated plants relative to untreated plants. Example M: Evaluation of Fungicidal Activity: Tomato Early Blight (Alternaria solani; Bayer Code […]) Tomato plants (variety Outdoor Girl) were propagated in soil-less Metro mix, with each pot having one plant, and used when 12 to 14 days old. Test plants were inoculated with an aqueous spore suspension of Alternaria solani 24 hr after fungicide treatments. After inoculation the plants were kept in 100% relative humidity (one day in a dark dew chamber followed by two to three days in a lighted dew chamber at 20° C.) to permit spores to germinate and infect the leaf. The plants were then transferred to a growth room at 22° C. for disease to develop. Fungicide formulation, application and disease assessment on the sprayed leaves followed the procedures as described in the Example A.

| SMILES | pest or weed control at 100 ppm [%] |
| --- | --- |
| CCCCCO[C@H]1[C@H](C)OC(=O)[C@@H](NC(=O)c2nccc(OC)c2OCOC(C)=O)CCCC[C@@H]1Oc1ccccc1 [Compound 17] | > 80 |
| CCCO[C@H]1[C@H](C)OC(=O)[C@@H](NC(=O)c2nccc(OC)c2OCOC(C)=O)CCCC[C@@H]1Oc1ccccc1 [Compound 18] | > 80 |
| COc1ccnc(C(=O)N[C@H]2CCCC[C@H](Oc3ccccc3)[C@@H](Oc3ccccc3)[C@H](C)OC2=O)c1OCOC(C)=O [Compound 19] | > 80 |
| COc1ccnc(C(=O)N[C@H]2COCC[C@H](Cc3ccccc3)[C@@H](OCC(C)C)[C@H](C)OC2=O)c1OCOC(C)=O [Compound 20] | > 80 |
| COc1ccnc(C(=O)N[C@H]2COCC[C@H](Cc3ccccc3)[C@@H](OCC(C)C)[C@H](C)OC2=O)c1OC(C)=O [Compound 21] | > 80 |

Tested on: Leptosphaeria nodorum
Assay: Wheat Glume Blotch (LEPTNO) fungicidal activity
Type: in vivo
Details: Parastagonospora nodorum, 24 h, 1DP (1 Day Protectant), read-out: LEPTNO Disease Control
Method: Technical grades of materials were dissolved in acetone, which were then mixed with nine volumes of H2O containing 110 ppm Triton X-100. The fungicide solutions were applied onto wheat seedlings using an automated booth sprayer to run-off. All sprayed plants were allowed to air dry prior to further handling. All fungicides were evaluated using the aforementioned method for their activity vs. all target diseases, unless stated otherwise. Wheat leaf blotch and brown rust activity were also evaluated using track spray applications, in which case the fungicides were formulated as EC formulations, containing 0.1% Trycol 5941 in the spray solutions. Wheat plants (variety Yuma) were grown from seed in a greenhouse in 50% mineral soil/50% soil-less Metro mix until the first leaf was fully emerged, with 7-10 seedlings per pot. These plants were inoculated with an aqueous spore suspension of Zymoseptoria tritici either prior to or after fungicide treatments. After inoculation the plants were kept in 100% relative humidity (one day in a dark dew chamber followed by two to three days in a lighted dew chamber at 20° C.) to permit spores to germinate and infect the leaf. The plants were then transferred to a greenhouse set at 20° C. for disease to develop. When disease symptoms were fully expressed on the 1st leaves of untreated plants, infection levels were assessed on a scale of 0 to 100 percent disease severity. Percent disease control was calculated using the ratio of disease severity on treated plants relative to untreated plants. Example C: Evaluation of Fungicidal Activity: Wheat Glume Blotch (Leptosphaeria nodorum; Bayer Code […]) Wheat plants (variety Yuma) were grown from seed in a greenhouse in 50% mineral soil/50% soil-less Metro mix until the first leaf was fully emerged, with 7-10 seedlings per pot. These plants were inoculated with an aqueous spore suspension of Leptosphaeria nodorum 24 hr after fungicide treatments. After inoculation the plants were kept in 100% relative humidity (one day in a dark dew chamber followed by two days in a lighted dew chamber at 20° C.) to permit spores to germinate and infect the leaf. The plants were then transferred to a greenhouse set at 20° C. for disease to develop. Fungicide formulation, application and disease assessment followed the procedures as described in the Example A.

| SMILES | pest or weed control at 100 ppm [%] |
| --- | --- |
| COc1ccnc(C(=O)N[C@H]2COCC[C@H](Cc3ccccc3)[C@@H](OCC(C)C)[C@H](C)OC2=O)c1OCOC(C)=O [Compound 20] | > 80 |
| COc1ccnc(C(=O)N[C@H]2COCC[C@H](Cc3ccccc3)[C@@H](OCC(C)C)[C@H](C)OC2=O)c1OC(C)=O [Compound 21] | > 80 |
| COc1ccnc(C(=O)N[C@H]2CCOC[C@H](Oc3ccccc3)[C@@H](Oc3ccccc3)[C@H](C)OC2=O)c1OCOC(C)=O [Compound 37] | > 80 |

Tested on: Puccinia triticina
Assay: Wheat Brown Rust (PUCCRT) fungicidal activity
Type: in vivo
Details: 24 h, High Volume application, 100 ppm, 1 day protectant, read-out: PUCCRT disease control, 1DP (1 Day Protectant)
Procedure, shortened: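 Disease severity (0–100%) on first leaves compared with untreated plants gives percent control. Plants (wheat var. Yuma) received spore inoculum before or after run-off spraying with compound in acetone/Triton X-100 water, held overnight at 22° C, 100% RH, then in a 24° C greenhouse.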

| SMILES | pest or weed control at 100 ppm [%] |
| --- | --- |
| CCCCCO[C@H]1[C@H](C)OC(=O)[C@@H](NC(=O)c2nccc(OC)c2OCOC(C)=O)CCCC[C@@H]1Oc1ccccc1 [Compound 17] | > 80 |
| CCCO[C@H]1[C@H](C)OC(=O)[C@@H](NC(=O)c2nccc(OC)c2OCOC(C)=O)CCCC[C@@H]1Oc1ccccc1 [Compound 18] | > 80 |
| COc1ccnc(C(=O)N[C@H]2CCCC[C@H](Oc3ccccc3)[C@@H](Oc3ccccc3)[C@H](C)OC2=O)c1OCOC(C)=O [Compound 19] | > 80 |

Same assay, conditions: 24 h, Low Volume application, 121.5 g/H, 1 day protectant, read-out: PUCCRT disease control, 1DP (1 Day Protectant)

| SMILES | pest or weed control at 121.5 g/ha [%] |
| --- | --- |
| COc1ccnc(C(=O)N[C@H]2CCCC[C@H](Oc3ccccc3)[C@@H](Oc3ccccc3)[C@H](C)OC2=O)c1OCOC(C)=O [Compound 19] | > 80 |
| COc1ccnc(C(=O)N[C@H]2COCC[C@H](Cc3ccccc3)[C@@H](OCC(C)C)[C@H](C)OC2=O)c1OCOC(C)=O [Compound 20] | > 80 |
| COc1ccnc(C(=O)N[C@H]2COCC[C@H](Cc3ccccc3)[C@@H](OCC(C)C)[C@H](C)OC2=O)c1OC(C)=O [Compound 21] | > 80 |
| COc1ccnc(C(=O)N[C@H]2CCOC[C@H](Oc3ccccc3)[C@@H](Oc3ccccc3)[C@H](C)OC2=O)c1OCOC(C)=O [Compound 37] | > 80 |

Same assay, conditions: 72 h, High Volume application, 100 ppm, 3 day curative, read-out: PUCCRT disease control, 3DC (3 Day Curative)

| SMILES | pest or weed control at 100 ppm [%] |
| --- | --- |
| CCCCCO[C@H]1[C@H](C)OC(=O)[C@@H](NC(=O)c2nccc(OC)c2OCOC(C)=O)CCCC[C@@H]1Oc1ccccc1 [Compound 17] | > 80 |
| CCCO[C@H]1[C@H](C)OC(=O)[C@@H](NC(=O)c2nccc(OC)c2OCOC(C)=O)CCCC[C@@H]1Oc1ccccc1 [Compound 18] | > 80 |
| COc1ccnc(C(=O)N[C@H]2CCCC[C@H](Oc3ccccc3)[C@@H](Oc3ccccc3)[C@H](C)OC2=O)c1OCOC(C)=O [Compound 19] | > 80 |

Same assay, conditions: 72 h, Low Volume application, 121.5 g/H, 3 day curative, read-out: PUCCRT disease control, 3DC (3 Day Curative)

| SMILES | pest or weed control at 121.5 g/ha [%] |
| --- | --- |
| COc1ccnc(C(=O)N[C@H]2CCCC[C@H](Oc3ccccc3)[C@@H](Oc3ccccc3)[C@H](C)OC2=O)c1OCOC(C)=O [Compound 19] | > 80 |
| COc1ccnc(C(=O)N[C@H]2COCC[C@H](Cc3ccccc3)[C@@H](OCC(C)C)[C@H](C)OC2=O)c1OCOC(C)=O [Compound 20] | > 80 |
| COc1ccnc(C(=O)N[C@H]2COCC[C@H](Cc3ccccc3)[C@@H](OCC(C)C)[C@H](C)OC2=O)c1OC(C)=O [Compound 21] | > 80 |
| COc1ccnc(C(=O)N[C@H]2CCOC[C@H](Oc3ccccc3)[C@@H](Oc3ccccc3)[C@H](C)OC2=O)c1OCOC(C)=O [Compound 37] | > 80 |

Tested on: Magnaporthe grisea; Anamorph: Pyricularia oryzae
Assay: whole plant or invertebrate
Type: in vivo
Details: 24 h, read-out: PYRIOR Disease Control

| SMILES | pest or weed control at 100 ppm [%] |
| --- | --- |
| CCCCCO[C@H]1[C@H](C)OC(=O)[C@@H](NC(=O)c2nccc(OC)c2OCOC(C)=O)CCCC[C@@H]1Oc1ccccc1 [Compound 17] | > 80 |
| CCCO[C@H]1[C@H](C)OC(=O)[C@@H](NC(=O)c2nccc(OC)c2OCOC(C)=O)CCCC[C@@H]1Oc1ccccc1 [Compound 18] | > 80 |
| COc1ccnc(C(=O)N[C@H]2CCCC[C@H](Oc3ccccc3)[C@@H](Oc3ccccc3)[C@H](C)OC2=O)c1OCOC(C)=O [Compound 19] | > 80 |
| COc1ccnc(C(=O)N[C@H]2CCOC[C@H](Oc3ccccc3)[C@@H](Oc3ccccc3)[C@H](C)OC2=O)c1OCOC(C)=O [Compound 37] | > 80 |

— patent publication US20180002319A1, “MACROCYCLIC PICOLINAMIDE COMPOUNDS WITH FUNGICIDAL ACTIVITY” (DOW AGROSCIENCES LLC, priority 2014, published 2018)
